# Measured values taken from article PMC10458203, “The Amoebicidal Activity of Diferrocenyl Derivatives: A Significant Dependence on the Electronic Environment” (Molecules, 2023).
# Where “and” joins values, the source holds several entries; their conditions need not be identical. Identical values can stand only once. Like-named read-outs stand apart in the source and are kept apart here. Marks after values point to notes of the source that are not given here.
# Tests used:
# [1] = RP-TLC, methanol/water 80:20; standard deviation in parentheses, three determinations
# [2] = test system: trophozoites of Entamoeba histolytica HM1:IMSS strain; experiment: Amoebicidal (antiproliferative) activity on trophozoite cultures, viability by trypan blue / CFDA-propidium iodide; type: cell-based; settings: for increase in the amoebicidal activity: compared with the parent compound 3a
# Description: Trophozoites of the E. histolytica HM1:IMSS strain were axenically grown by placing 1 × 10^5 live trophozoites in tubes with 3 mL of supplemented TYI-S33 medium. Amoebic trophozoite viability exposed to 1000, 100, 10, 1, 0.1, and 0.01 μM of each experimental compound was determined at 24, 48, and 72 h with trypan blue vital marker and confirmed with the fluorescent dyes carboxyfluorescein diacetate (CFDA) and propidium iodide. Either 100 μL of Trypan blue 0.4% or 1 μL of 5 μM CFDA (Invitrogen Molecular Probes, Inc., Eugene, OR, USA) and 1 μL of 1.5 μM propidium iodide were added to samples of 100 μL containing around 1 × 10^4 treated trophozoites, mixed, and incubated at room temperature for 15 min. The final solutions were mixed and incubated at room temperature for 15 min to perform the counting with an Olympus BX51 fluorescence microscope. The IC50 values were calculated by a multivariable regression using the amoebic viability curves for the tree times evaluated on GraphPad Prism 10.0.
# [3] = set-up: method as in doi:10.1016/j.jorganchem.2017.05.002; settings: cited from earlier work
# [4] = cited from earlier work
# amoeba trophozoites = test system: amoeba trophozoites; set-up: method as in PMID 27863300; settings: cited from earlier work
# [5] = Electrochemical measurements (voltammetry) of redox potentials in acetonitrile; type: physicochemical; settings: TBATFB 0.1 M; for E(I) half-wave redox potential / E(II) half-wave redox potential: vs. Fc/Fc+
# Description: Two oxidation (Ia, IIa) and two reduction (Ic, IIc) processes with half-wave potential values E(I) = −0.022 V and E(II) = 0.164 V were observed. The electronic communication between both Ferrocene units was evaluated using the ΔE(II–I) to calculate the comproportionation constant (Kcom). According to the Kcom value 1563, the mixed-valence compound is a Class II compound in the Robin–Day classification with slight electronic delocalization between the two redox centers. This slight communication between iron ions allows the identification of two independent and sequential redox processes. It confirms the absence of chemical or adsorption processes associated with redox transformation (Figure 1b). Similar results were found for compound 3e (Table 1). The relationship between redox potential values found for compounds 3a–e follows the equation EII(V) = 1.01EI(V) + 0.1897 (R^2 = 0.9894, F = 280.7, Figure 2a).
# Individual diferrocenylvinyloxazolines 3a–e (Figure 6) were isolated using Al2O3 column chromatography (activity grade III, elution with hexane-ether 4:1). In the solid state, fine crystalline substances of orange color represent them. The E and Z […] could be separated by a chromatographic column. In this work, only Z-enantiomers were employed, as described in the compound characterization. The structures of compounds 3a–e were determined based on mass spectrometry, FT-IR, ^1H, and ^13C NMR spectroscopy, and elemental analysis. UV–vis spectra of 3a–e were acquired using acetonitrile solutions at different concentrations in a Genesis 30 Spectrophotometer (Thermo Scientific, Waltham, MA, USA) from 325 to 1100 nm. Electrochemical measurements for compounds 3c and 3e were performed using conditions reported previously. Briefly, acetonitrile solutions at different concentrations of the compound with tetrabutylammonium tetrafluoroborate (TBATFB) 0.1M as a supporting electrolyte, platinum disk as a working electrode, and Ag/AgNO3 as a reference in a potentiostat/galvanostat (EG&G PAR 273). The scan rate was 0.1 V/s, from open circuit potential to positive direction. Bubbling N2 deoxygenated the working solution before each measurement.
# [6] = E. histolytica HM1:IMSS trophozoites, viability curves at 24, 48 and 72 h, read-out: IC50
# [7] = logarithmic units of IC50 in µM
Compound,logP [1],"IC50 [2, 6]","−log (1/IC50) [2, 7]","E(I) redox potential ([3]; acetonitrile, vs. Fc/Fc+)","E(II) redox potential ([3]; acetonitrile, vs. Fc/Fc+)",E(I) redox potential [3],E(II) redox potential [3],increase in the amoebicidal activity [2],also measured
"2-(Z-2,3-diferrocenylvinyl)-4,5-dihydrooxazole [Compound 3a]",4.42 (0.2),1000 ± 46 µM,3,0.116 V and 0.116 ^a V,0.305 V and 0.305 ^a V,116 mV,305 mV,,
"C(=C(/C1=NCCS1)[c-]1cccc1)/[c-]1cccc1.[Fe+2].[Fe+2].c1cc[cH-]c1.c1cc[cH-]c1 [2-(Z-1,2-diferrocenylvinyl)-4,5-dihydro-1,3-thiazole]",,,,,,,,,E(I) redox potential [4]: 0.251 V; E(II) redox potential [4]: 0.408 V
"C(=C(/C1=NCCN1)[c-]1cccc1)/[c-]1cccc1.[Fe+2].[Fe+2].c1cc[cH-]c1.c1cc[cH-]c1 [2-(Z-1,2-diferrocenylvinyl)-imidazoline]",,,,,,,,,E(I) redox potential [4]: 0.250 V; E(II) redox potential [4]: 0.437 V
"COc1cc2c(c(OC)c1OC)CCC1C2=Nc2ccccc2SC1[c-]1cccc1.[Fe+2].c1cc[cH-]c1 (centres unmarked) [(2,3,4-trimethoxy-5,6,6a,7-tetrahydrobenzo[b]naphtho [1,2-e][1,4]thiazepin-7-yl)ferrocene]",,,,,,,,,redox potential [4]: +0.042 V; IC50 (amoeba trophozoites): 12.6 µM
"[Fe+2].c1cc[cH-]c1.c1ccc2c(c1)CCC1C2=Nc2ccccc2SC1[c-]1cccc1 (centres unmarked) [(5,6,6a,7-tetrahydrobenzo[b]naphtho [1,2-e][1,4]thiazepin-7-yl)ferrocene]",,,,,,,,,redox potential [4]: +0.005 V; IC50 (amoeba trophozoites): 7.5 µM
"CC1COC(/C(=C\[c-]2cccc2)[c-]2cccc2)=N1.[Fe+2].[Fe+2].c1cc[cH-]c1.c1cc[cH-]c1 (centres unmarked) [Compound 3b, 2-(Z-1,2-diferrocenylvinyl)-4-methyl-4,5-dihydrooxazole]",4.76 (0.1),100 ± 9 µM,2,−0.019 ^a V,0.182 ^a V,−19 mV,182 mV,10 fold,
"CC(C)C1COC(/C(=C\[c-]2cccc2)[c-]2cccc2)=N1.[Fe+2].[Fe+2].c1cc[cH-]c1.c1cc[cH-]c1 (centres unmarked) [Compound 3c, 2-(Z-1,2-diferrocenylvinyl)-4-isopropyl-4,5-dihydrooxazole]",5.48 (0.1),1890 µM,,,,,,,E(I) redox potential [5]: −22 mV; E(II) redox potential [5]: 167 mV; E(I) half-wave redox potential [5]: −0.022 V; E(II) half-wave redox potential [5]: 0.167 V
"C(=C(/C1=NC(c2ccccc2)CO1)[c-]1cccc1)/[c-]1cccc1.[Fe+2].[Fe+2].c1cc[cH-]c1.c1cc[cH-]c1 (centres unmarked) [Compound 3d, 2-(Z-1,2-diferrocenylvinyl)-4-phenyl-4,5-dihydrooxazole]",5.62 (0.2),23 ± 3 µM,1.36,−0.045 ^a V,0.135 ^a V,−45 mV,135 mV,more than 40 fold,
"C(=C(/C1=NC(Cc2ccccc2)CO1)[c-]1cccc1)/[c-]1cccc1.[Fe+2].[Fe+2].c1cc[cH-]c1.c1cc[cH-]c1 (centres unmarked) [Compound 3e, 2-(Z-1,2-diferrocenylvinyl)-4-benzyl-4,5-dihydrooxazole]",6.1 (0.09),385 ± 11 µM,2.58,,,,,2.5 fold,E(I) redox potential [5]: −65 mV; E(II) redox potential [5]: 124 mV; E(I) half-wave redox potential [5]: −0.065 V; E(II) half-wave redox potential [5]: 0.124 V
"Cc1ncc([N+](=O)[O-])n1CCO [Metronidazole, reference compound]",,,,,,,,,"IC50 ([2]; Entamoeba histolytica, E. histolytica HM1:IMSS trophozoites, viability curves at 24, 48 and 72 h, read-out: IC50): 7 ± 0.9 µM; IC50 ([2]; Entamoeba histolytica, logarithmic units of IC50 in µM, read-out: −log (1/IC50) (converted)): 6.92 µM"
